Source: patent US10456414B2, “Methods for treating HCV” (priority 2011, dated 2019)
Like-named read-outs stand apart in the source and are kept apart here.

Tests used:
[1] = test system: Genotype 1 b replicon cells; experiment: Compound combination replicon cure assay, colony formation; settings: 6 days treatment at the same concentrations, then G418 for 14 days
[2] = test system: GT4a NS5B S282T mutant chimeric replicon; experiment: microbe, parasite or virus in culture; type: cell-based, HCV
[3] = test system: genotype 1b replicon RNA; experiment: Replicon RNA suppression, 6 day assay, QRT-PCR
[4] = test system: HCV genotype 1a replicon; experiment: Antiviral combination studies with Compound 4, MacSynergy II
[5] = test system: GT2b NS5B S282T mutant chimeric replicon; experiment: microbe, parasite or virus in culture; type: cell-based, HCV
[6] = test system: Genotype 1a replicon, NS5A M28T
[7] = test system: HCV genotype 1a replicon; experiment: HCV genotype 1a replicon assay, EC50 (Biological Example 3); type: cell-based; settings: Hepatitis C virus, 72 h, 3 days, average ± standard deviation, read-out: EC50
[8] = Drug-drug interactions of co-administered compounds (exposure); type: in vivo; settings: co-administered with Compound 2
Procedure: With respect to Compounds 9 and 10, or pharmaceutically acceptable salts thereof, the composition may comprise 10 mg to 1000 mg per day (according to US 2010/0298257). With respect to Compound 11, or pharmaceutically acceptable salts thereof, the composition may comprise 1 mg to 1000 mg per day (according to US 2010/0081628).

[9] = test system: Huh-7 cells carrying an HCV genotype 1a replicon; settings: with 320 nM Compound 10 and the highest concentration of the listed compound
[10] = HCV genotype 1a replicon assay, CC50 by calcein AM (Biological Example 8); settings: human, Huh-7 cells carrying an HCV genotype 1a replicon
[11] = test system: 1b Huh-luc replicon cells; experiment: Antiviral combination studies with Compound 5, MacSynergy II; type: cell-based, HCV; settings: in combination with Compound 5, mean ± standard deviation
Procedure: Combination data were analyzed based on the Bliss Independence model using MacSynergy II software. Results of the combination assays were expressed as mean synergy and antagonism volumes (nM^2) calculated at 95% confidence from two independent experiments performed in triplicate.

[12] = test system: Genotype 1a replicon, NS5A L31M
[13] = test system: GT2a wild-type replicon; experiment: microbe, parasite or virus in culture; type: cell-based, HCV; settings: Hepatitis C virus, 72 h, 3 days
[14] = test system: GT4a wild-type chimeric replicon (4a NS5B in GT1b backbone); experiment: microbe, parasite or virus in culture; type: cell-based, HCV; settings: Hepatitis C virus, 72 h, read-out: EC50 WT
[15] = test system: Genotype 1a replicon, NS5A Q30R
[16] = test system: GT2b wild-type chimeric replicon (2b NS5B in GT1b backbone); experiment: microbe, parasite or virus in culture; type: cell-based, HCV; settings: Hepatitis C virus, 72 h, read-out: EC50 WT
[17] = test system: GT1b wild-type replicon; experiment: microbe, parasite or virus in culture; type: cell-based, HCV; settings: Hepatitis C virus, 72 h, 3 days
[18] = test system: GT1b NS5B S282T mutant replicon; experiment: microbe, parasite or virus in culture; type: cell-based, HCV
[19] = test system: Genotype 1a replicon, NS5A Q30E
[20] = test system: GT3a wild-type chimeric replicon (3a NS5B in GT1b backbone); experiment: microbe, parasite or virus in culture; type: cell-based, HCV; settings: Hepatitis C virus, 72 h, read-out: EC50 WT
[21] = test system: Huh-7 cells carrying a HCV genotype 1a replicon; experiment: HCV genotype 1a replicon assay, CC50 by calcein AM (Biological Example 3); type: cell-based; settings: genotype 1a replicon cells, 3 days, read-out: CC50
Procedure: The CC50 assay was performed first.

[22] = test system: Genotype 1a replicon, NS5A Y93H
[23] = test system: HCV genotype 1a replicon; experiment: HCV genotype 1a replicon assay, EC50 (Biological Example 8); settings: Hepatitis C virus, 72 h
[24] = test system: Genotype 1a replicon, NS5A Q30H
[25] = test system: GT3a NS5B S282T mutant chimeric replicon; experiment: microbe, parasite or virus in culture; type: cell-based, HCV
[26] = test system: GT2a NS5B S282T mutant replicon; experiment: microbe, parasite or virus in culture; type: cell-based, HCV
[27] = test system: Genotype 1a replicon, NS5A Y93C
[28] = test system: Huh-7 cells carrying a HCV genotype 1a replicon; experiment: Cytotoxicity combination studies with Compound 4, MacSynergy II
[29] = in combination with Compound 4, mean ± standard deviation

With COC(=O)N[C@H](C(=O)N1CC2(CC2)C[C@H]1c1ncc(-c2ccc3c(c2)C(F)(F)c2cc(-c4ccc5nc([C@@H]6[C@H]7CC[C@H](C7)N6C(=O)[C@@H](NC(=O)OC)C(C)C)[nH]c5c4)ccc2-3)[nH]1)C(C)C [Compound 6, (1-{3-[6-(9,9-Difluoro-7-{2-[5-(2-methoxycarbonylamino-3-methyl-butyryl)-5-aza-spiro[2.4]hept-6-yl]-3H-imidazol-4-yl}-9H-fluoren-2-yl)-1H-benzoimidazol-2-yl]-2-aza-bicyclo[2.2.1]heptane-2-carbonyl}-2-methyl-propyl)-carbamic acid methyl ester] the Uncured colony number [1] was 634, the Fold change ([2]; GT4a, S282T EC50 versus corresponding wild type) was 0.8 and the EC50 ([2]; Hepatitis C virus, GT4A, 72 h, read-out: EC50 S282T) was 0.4 nM. For the same compound, the “Replicon RNA log drop” value [3] was −1.4 log, the “Compound concentration able to induce replicon RNA 1-1.5 log drop in a 6 day assay” value ([3]; genotype 1b replicon cells, 6 days) was 0.004 nM and the “Replicon RNA log drop” value ([3]; single compound at the listed concentration, 6 days, relative to DMSO control (Table XIV)) was −1.4 log. For the same compound, the Interaction ([4]; in combination with Compound 4) was “Additivity (Additivity: ≤25 and >−25 nM^2%)”, the “Antagonism Volume” value [4, 29] was −7 ± 7 nM^2% and the “Synergy Volume” value [4, 29] was 19 ± 17 nM^2%. For the same compound, the Fold change ([5]; GT2b, S282T EC50 versus corresponding wild type) was 0.9, the EC50 ([5]; Hepatitis C virus, GT2B, 72 h, read-out: EC50 S282T) was 0.5 nM and the “Fold Shift in EC50 (DRM EC50/1a-H77 EC50)” value (“Fold Shift in EC50” for short) [6] was 25. For the same compound, the EC50 [7] was 0.033 ± 0.011 nM, the “increase of exposure of Compound 6 by Compound 2” value [8] was “approximately 5 ×” and the “Cytotoxicity at Highest Concentration of Compound Combinations (% inhibition on cell growth)” value [9] was 5.0 ± 5.0%. For the same compound, the CC50 at 3 days [10] was greater than 44400 nM, the “Antagonism Volume” value [11] was 0 ± 0 nM^2 and the “Synergy Volume” value [11] was 34 ± 19 nM^2. For the same compound, the “Fold Shift in EC50” value [12] was 140, the EC50 [13] was 5160 nM and the EC50 [14] was 0.5 nM. For the same compound, the “Fold Shift in EC50” value [15] was 170, the EC50 [16] was 0.5 nM and the EC50 [17] was 0.5 nM. For the same compound, the Fold change ([18]; GT1b, S282T EC50 versus corresponding wild type) was 0.8, the EC50 ([18]; Hepatitis C virus, GT1B, 72 h, read-out: EC50 S282T) was 0.4 nM and the “Fold Shift in EC50” value [19] was 997. For the same compound, the EC50 [20] was 0.4 nM, the CC50 [21] was greater than 44400 nM and the “Fold Shift in EC50” value [22] was 3029. For the same compound, the EC50 [23] was 0.032 nM, the “Fold Shift in EC50” value [24] was 73 and the Fold change ([25]; GT3a, S282T EC50 versus corresponding wild type) was 0.6. It also gave an EC50 ([25]; Hepatitis C virus, GT3A, 72 h, read-out: EC50 S282T) of 0.2 nM, a Fold change ([26]; GT2a, S282T EC50 versus corresponding wild type) of 0.5 and an EC50 ([26]; Hepatitis C virus, GT2A, 72 h, read-out: EC50 S282T) of 2340 nM. The “Fold Shift in EC50” value [27] was 327, the “Interaction (cytotoxicity)” value ([28]; in combination with Compound 4) was “Additivity (Additivity: ≤25 and >−25 nM^2%)” and the “Antagonism Volume (cytotoxicity)” value [28, 29] was 0 ± 0 nM^2%. For the same compound, the “Synergy Volume (cytotoxicity)” value [28, 29] was 8 ± 4 nM^2%.
